Test [1] concerns the target T1, Interferon alpha/beta receptor 1 (Homo sapiens, UniProt P17181).
T1 sequence (P17181 whole entry): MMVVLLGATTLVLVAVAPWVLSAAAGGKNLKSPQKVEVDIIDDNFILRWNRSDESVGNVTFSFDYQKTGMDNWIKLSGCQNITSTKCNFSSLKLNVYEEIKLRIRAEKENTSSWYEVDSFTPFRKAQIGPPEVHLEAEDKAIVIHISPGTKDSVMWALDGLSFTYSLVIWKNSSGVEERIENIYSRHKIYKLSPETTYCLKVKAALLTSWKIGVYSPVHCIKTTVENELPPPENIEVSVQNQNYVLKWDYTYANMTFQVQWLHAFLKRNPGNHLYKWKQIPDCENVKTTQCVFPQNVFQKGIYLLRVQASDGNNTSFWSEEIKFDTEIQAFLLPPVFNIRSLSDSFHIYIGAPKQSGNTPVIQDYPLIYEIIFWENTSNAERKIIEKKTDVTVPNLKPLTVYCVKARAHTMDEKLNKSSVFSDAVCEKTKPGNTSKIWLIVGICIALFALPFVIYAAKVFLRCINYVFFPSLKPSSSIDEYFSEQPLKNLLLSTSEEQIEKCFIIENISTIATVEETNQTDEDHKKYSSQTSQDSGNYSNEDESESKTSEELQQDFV
Briefly: Binding affinity to IFNAR (unknown origin) assessed as inhibition of interaction with IFN-alpha.

Test [2] has as its target Von Hippel-Lindau disease tumor suppressor/Elongin B/Elongin C (Homo sapiens, UniProt P40337). Briefly: Displacement of FAM-DEALAHyp-YIPD from VHL/elongins-B/elonginC (unknown origin) by fluorescence polarization assay. The class given is protein-complex assay. A general note: Polarisation of emitted light reports the rotation of a fluorescent probe.
Test [3] has as its target TCF4/beta-catenin (Homo sapiens, UniProt P35222+Q9NQB0). The experiment in a line: Inhibition of beta-catenin/T cell factor (unknown origin). In kind it is protein-complex assay.

Each structure is given as a SMILES string.

Our source for the Kd, IC50 and Ki values is ChEMBL document CHEMBL3259607, “Hot spot-based design of small-molecule inhibitors for protein-protein interactions” (Bioorg Med Chem Lett, 2014).

The term Kd denotes a measure of binding affinity in units of concentration. As a reminder, the IC50 is the concentration needed to halve the response being measured. A word on the Ki: it is a dissociation constant, usually derived from enzyme kinetics or from competition with a known ligand. Read a low Ki as higher affinity.

Sequence of TCF4/beta-catenin (P35222 whole entry): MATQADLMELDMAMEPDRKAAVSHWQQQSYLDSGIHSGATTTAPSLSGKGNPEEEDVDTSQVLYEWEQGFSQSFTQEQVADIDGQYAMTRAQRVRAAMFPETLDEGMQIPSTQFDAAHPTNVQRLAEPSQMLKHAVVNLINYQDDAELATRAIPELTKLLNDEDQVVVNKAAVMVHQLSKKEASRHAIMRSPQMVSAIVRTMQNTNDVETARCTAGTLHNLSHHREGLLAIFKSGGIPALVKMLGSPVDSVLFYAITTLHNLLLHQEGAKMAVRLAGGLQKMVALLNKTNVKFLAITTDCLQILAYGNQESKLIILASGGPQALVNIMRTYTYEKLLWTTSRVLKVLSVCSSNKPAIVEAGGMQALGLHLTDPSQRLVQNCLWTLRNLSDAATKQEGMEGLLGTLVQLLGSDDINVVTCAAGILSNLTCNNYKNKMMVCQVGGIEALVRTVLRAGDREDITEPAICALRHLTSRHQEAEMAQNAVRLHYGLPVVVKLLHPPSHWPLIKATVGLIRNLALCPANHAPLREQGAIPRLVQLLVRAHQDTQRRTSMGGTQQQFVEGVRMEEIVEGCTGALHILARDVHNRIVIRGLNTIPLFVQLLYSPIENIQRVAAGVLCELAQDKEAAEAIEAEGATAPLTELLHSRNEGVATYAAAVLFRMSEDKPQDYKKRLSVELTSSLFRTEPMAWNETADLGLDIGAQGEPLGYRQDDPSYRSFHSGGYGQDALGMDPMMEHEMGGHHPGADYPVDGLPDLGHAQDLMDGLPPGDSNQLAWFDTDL
Sequence of TCF4/beta-catenin (Q9NQB0 whole entry): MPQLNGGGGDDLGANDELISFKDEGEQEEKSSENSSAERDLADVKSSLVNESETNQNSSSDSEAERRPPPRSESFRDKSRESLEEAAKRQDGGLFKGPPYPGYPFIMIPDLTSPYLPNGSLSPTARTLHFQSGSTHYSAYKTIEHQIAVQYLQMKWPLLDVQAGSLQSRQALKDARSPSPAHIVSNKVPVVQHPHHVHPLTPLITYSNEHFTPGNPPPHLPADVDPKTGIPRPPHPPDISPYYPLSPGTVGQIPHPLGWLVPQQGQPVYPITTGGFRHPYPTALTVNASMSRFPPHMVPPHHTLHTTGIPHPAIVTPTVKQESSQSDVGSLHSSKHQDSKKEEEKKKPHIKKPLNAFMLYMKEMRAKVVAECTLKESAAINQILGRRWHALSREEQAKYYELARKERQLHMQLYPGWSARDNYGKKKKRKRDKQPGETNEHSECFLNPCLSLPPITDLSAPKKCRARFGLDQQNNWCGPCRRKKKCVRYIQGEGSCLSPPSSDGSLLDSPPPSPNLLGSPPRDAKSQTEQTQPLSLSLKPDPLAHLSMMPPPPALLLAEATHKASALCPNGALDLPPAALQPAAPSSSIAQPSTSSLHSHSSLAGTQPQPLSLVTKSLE
Sequence of Von Hippel-Lindau disease tumor suppressor/Elongin B/Elongin C (P40337 whole entry, looked up): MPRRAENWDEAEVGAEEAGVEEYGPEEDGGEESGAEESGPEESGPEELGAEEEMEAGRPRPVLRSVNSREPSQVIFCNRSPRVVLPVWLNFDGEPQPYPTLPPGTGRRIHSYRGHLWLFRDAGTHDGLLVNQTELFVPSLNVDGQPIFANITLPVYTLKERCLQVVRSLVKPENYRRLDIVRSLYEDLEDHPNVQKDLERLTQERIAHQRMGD

As for `CNCc1ccccc1Sc1cccc2ccccc12`, the Kd in test [1] was found to be 4000 nM.

In test [2], `Cc1ncsc1-c1ccc(CNC(=O)[C@@H]2C[C@@H](O)CN2C(=O)c2cccc(N)c2C)cc1` yielded a half-inhibitory concentration (IC50) of 900 nM.

As to `Oc1noc2cc(CCc3nn[nH]n3)ccc12`, the Ki in test [3] was determined as 1350 nM.
